Experimental data taken from patent US20190211044A1, “Adjuvant Chemicals that Prevent Drug Tolerance and Persister Formation by Bacteria” (LifeUnit Inc., priority 2018, published 2019).

Tests used:
[1] = system: PAO1 in residual biofilm; assay: cdG in PAO1 in residual biofilm after dispersal, by LC-MS (Example 4); assay type: cell-based, Pseudomonas aeruginosa; settings: PAO1 residual biofilm dispersed by agent, versus original native or abx-promoted biofilm
Protocol: PAO1 in residual biofilm dispersed by 3,5-[…] and 3,5-[…] was tested by Liquid Chromatography-Mass Spectrometry (LC-MS).

[2] = system: PAO1 in residual biofilm; assay: cdG in PAO1 in residual biofilm after dispersal, by reporter strains, GFP/CFP fluorescence (Example 5); assay type: cell-based, Pseudomonas aeruginosa; settings: 40 μM for native and 85 μM for abx-promoted biofilm, dispersed 5-h at 37° C., M9 medium
[3] = system: phosphodiesterase activity in biofilms of PA strains; assay type: cell-based; settings: bacteria incubated with agent 24-h to form biofilm, lysed, bis-NPP
[4] = system: PAO1 in residual biofilm; assay: cdG by reporter strains versus naturally dispersed PAO1 (Example 7); assay type: cell-based, Pseudomonas aeruginosa; settings: PAO1 in residual biofilm dispersed by agent
[5] = system: abx-promoted swarming P. aeruginosa; assay: c-di-GMP in abx-promoted swarming P. aeruginosa, by LC-MS (Example 8); assay type: cell-based
Protocol: 3,5-DiMeDβM and 3,5-DiMeDβC was tested by Liquid Chromatography-Mass Spectrometry (LC-MS) to show the effect on c-di-GMP on abx-promoted swarming P. aeruginosa.

[6] = system: PA PAO1 biofilm; assay: Inhibition of PA PAO1 biofilm (FIG. 1); assay type: cell-based, Pseudomonas aeruginosa; settings: compounds at 60 μM

| Substance | cdG level in residual biofilm (LC-MS) [1] | cdG level in residual biofilm (reporter strains, GFP/CFP) [2] | phosphodiesterase activity [3] | cdG level versus naturally dispersed PAO1 (reporter strains) [4] | c-di-GMP on abx-promoted swarming P. aeruginosa (LC-MS) [5] | biofilm inhibition [6] [%] |
| --- | --- | --- | --- | --- | --- | --- |
| 3,5-dimethyl-C12-βC [3,5-DiMeDβC] | lower cdG than in original native or abx-promoted biofilm | lower cdG than in original native or abx-promoted biofilm | increase phosphodiesterase activity | lower cdG than in naturally dispersed PAO1 | increases c-di-GMP |  |
| 3,5-dimethyl-C12-βM [3,5-DiMeDβM] | lower cdG than in original native or abx-promoted biofilm | lower cdG than in original native or abx-promoted biofilm | increase phosphodiesterase activity | lower cdG than in naturally dispersed PAO1 | increases c-di-GMP | > 95 |
